# pEC50: −log10 of the molar value.
# How the values were obtained:
# [1] = Pharmacokinetic model: typical-rat PK from satellite PK experiments, oral dosing; type: in vivo, rats; conditions: Sprague-Dawley, plasma
# [2] = system: telemetered rat (transitions between SLEEP and WAKE states); type: in vivo, Male Sprague–Dawley rats
smiles,measurement,setting,value
"COC(=O)C(c1ccccc1)C1CCCCN1 (centres unmarked) [methylphenidate, Methylphenidate]",Cmax,[1]; 3 mg,44 nM
same,Tmax,[1]; 3 mg,12 s
same,Cmax,[1]; 10 mg,146 nM
same,Tmax,[1]; 10 mg,12 s
same,Cmax,[1]; 30 mg,438 nM
same,Tmax,[1]; 30 mg,12 s
same,pEC50,"[2]; Rattus norvegicus, intensity v (SLEEP to WAKE, clearance of sleep), plasma concentration, mean (95% confidence limits)",6.54
same,"Teq,drug (equilibrium half-life plasma to effect compartment)","[2]; delay on intensity u (acquisition of sleep), mean (95% confidence limits)","24 (17, 40) min"
same,overall effect on sleep/wakefulness compared to placebo,"[2]; rats, Figs. 4 and 6",tend to promote wakefulness
same,"relative potency in inducing sleep fragmentation, methylphenidate versus NCE","[2]; rats, from estimated maximum effects",fivefold more potent
same,effect on the transitions between sleep states (intensities),"[2]; rats, sign of Emax values, Fig. 2",inhibit the transitions from one sleep status to another

# — paper PMC3215869 (Journal of Pharmacokinetics and Pharmacodynamics, 2011)
